This is an account of results in patent US9980972B2, “Rho kinase inhibitors for use in treating familial amyotrophic lateral sclerosis” (GEORG-AUGUST-UNIVERSITÄT GÖTTINGEN STIFTUNG ÖFFENTLICHEN …, priority 2012, dated 2018).

Assay [1] has as its system wildtype primary motoneurons in astrocyte/motoneuron co-culture. Put plainly: Kainic acid toxicity in astrocyte/motoneuron co-culture. The assay is classed as cell-based. The note with it: KA exposure 24 h, Fasudil 4 or 20 μM, co-culture with astrocytes.
Excerpt: In order to compare the Fasudil neuroprotective effect on motoneurons in vivo with an corresponding in vitro paradigm the inventors subjected wildtype primary motoneurons cultured in a astrocyte/motoneuron co-culture to kainic acid (KA) toxicity.
Assay [2] deals with SOD1 G93A mouse model of ALS. Put plainly: Rotarod test (motor coordination), time to failure of 180 s. The assay is classed as in vivo. From the text:
From a patient's point of view overall survival is not the only parameter of a successful therapy. Many recent therapeutic studies in humans rather evaluate an increased time with improved quality of life. An improved motor function could be one parameter that is relevant for the quality of daily life and therefore the inventors chose two different tests to monitor motor function in the present animal model. The rotarod test evaluates fine motor coordination and is a very sensitive test for the ability to move on an unstable underground. Evaluating motor coordination by subjecting the animals to the rotarod test, the presymptomatic female treatment group failed later in the task to reach a total running time of 180 s (122.5 days) in comparison to the vehicle-treated group (114.2 days).

Assay [3] relates to SOD1 G93A mouse model of ALS. Put plainly: Disease onset by neurological score in SOD1 G93A mice. As to conditions: treated from d50 or from d80, differentiated by gender. Format: in vivo. On the procedure: Neurological Score. Neurological scores were assessed every three days for each mouse from 50 days of age. The neurological score employed a scale of 0 to 4 that had been developed in ALS mouse trials before. Score criteria used to assign each score level were: • 4 Full extension of hind legs away from lateral midline when mouse is suspended by its tail, and mouse can hold this for 2 seconds, suspended 2-3 times. • 3 Collapse or partial collapse of leg extension towards lateral midline (weakness) or trembling of hind legs during tail suspension. • 2 Toes curl under at least twice during walking of 10 cm, or any part of foot is dragging along cage bottom/table. • 1 Rigid paralysis or minimal joint movement, foot not being used for forward motion*. * If score criterion 2 is reached, food pellets are left on bedding and water is additionally placed in a well on the bedding. • 0 Mouse cannot right itself within 30 seconds from either side.
Onset of disease is defined as reaching neurological score 3 (collapse or partial collapse of leg extension towards lateral midline (weakness) or trembling of hind legs during tail suspension).

The subject of assay [4] is SOD1 G93A mouse model of ALS. The assay can be described thus: Disease duration (onset until death) in SOD1 G93A mice. Format: in vivo. From the text:
Disease duration. This parameter was selected in order analyze the treatment effects under a clinically relevant situation of the time from disease onset until death. Disease duration is defined as beginning from the appearance of the first clinical symptoms until death.

Assay [5] concerns sciatic nerve axons of SOD1 G93A mice. Put plainly: Sciatic nerve axon numbers (axonal degeneration). The assay is classed as in vivo, mouse. The note with it: day 100, female, Fas30 vs transgenic vehicle. On the procedure:
Sciatic nerves were removed separately and postfixed for 24 h in 4% paraformaldehyde. […] After three washing steps the nerves were embedded in […] and Propylenoxide with a ratio of first 1:1 and then 2:1, each for 35 min. Before putting into a flat mould for drying and harding, Propylenoxide had to evaporate under a hood for 1 h. The sciatic nerves embedded in […] blocks were cut with a Microtom (Leica Ultracut) into semithin sections (380 nm) and were collected on gelatine coated glass slides. […] After washing in distilled water, slices were dried and mounted in […] cuts of sciatic nerve axons were evaluated from light microscopy images for axonal numbers and axoplasm size with the semi-automated counting and size measuring tool of the Image J software. In the d50 treatment group analyzed at […], a total of 17 female mice were counted from vehicle (5), Fas30 (7), and wildtype (5).

In assay [6] the test system is spinal cord microglia of SOD1 G93A mice. The assay can be described thus: Iba1 immunopositive microglia count in spinal cord anterior horn. The assay is classed as in vivo, mouse. On the procedure: Spinal cord sections selected for immunohistochemical processing were first rehydrated. Then antigen-retrieval was performed for 4 h in TBS at 60° C. for later GFAP or Iba1 labeling and for 30 min in sodium citrate (pH 9.0) at 80° C. for later ChAT labeling. After washing for one time in PBS the sections were incubated at room temperature either in PBS and 10% of normal goat serum for later GFAP labeling or in PBS and 5% normal donkey serum for later ChAT labeling to block unspecific binding. The primary antibodies (anti-ChAT 1:100, AB144 P, Millipore; anti-GFAP 1:200, DAKO; anti-Iba1 1:500, WAKO, Osaka, Japan) were applied at 4° C. for one night for GFAP and for three nights for ChAT. The secondary antibodies (Cy3 anti-goat or Cy2/Dylight anti rabbit; both Dianova) were applied on separate sections 1:300 for 1 h at room temperature. Then a nuclear counter-stain with DAPI (4,6-diamidino-2-phenylindole) (Sigma-Aldrich) was performed before mounting in Moviol (Hoechst, Frankfurt, Germany).
Astrogliosis and microgliosis were evaluated by the quantification of GFAP or Iba1 positive cells in the ventral horn of lumbar spinal cord sections, respectively. Again, the area of the ventral horn was defined and GFAP or Iba1 positive cells were manually counted. In the d50 treatment group analyzed at death, a total of 20 mice was counted from the vehicle (3 male, 3 female), Fas30 (3 male, 3 female), Fas100 (3 male, 3 female) and wildtype (1 male, 1 female) group. In the d50 treatment group analyzed at d100, a total of 20 mice was counted from the vehicle (3 male, 3 female), Fas30 (3 male, 3 female), Fas100 (3 male, 3 female) and wildtype (1 male, 1 female) group.
The extent of microglial cell dissemination in the lumbar spinal cord was evaluated with a marker of activated microglia (Iba1) as described above under the heading “Quantitative evaluation of spinal cord motoneurons and astroglia, sciatic nerve axons and NMJ”.

Assay [7] concerns SOD1 G93A mouse model of ALS. Put plainly: Hanging wire test (crude muscular strength), time to failure of 180 s. The assay is classed as in vivo. The note with it: either treatment groups of both sexes. From the text: The hanging wire test evaluates crude grip strength of the upper extremities.
The hanging wire performance evaluating crude muscular strength in the task to reach a total hanging wire time of 180 s was not different in either treatment groups of both sexes (FIG. 6). Wildtype animals always reached the maximum time of 180 s (data not shown).

`O=S(=O)(c1cccc2cnccc12)N1CCCNCC1` [Fasudil, 1-(5-isoquinolinesulfonyl)homopiperazine]: the “survival of KA exposed motoneurons” value in assay [1] was “protected motoneurons from KA induced cell death”. The rotarod performance result in assay [2] (male, presymptomatic Fas30) is recorded as “slight non-significant trend to improved performance”; in assay [2] (symptomatic treatment), “not able to improve rotarod performances”. Moreover, the “time to failure to reach 180 s rotarod running time” value in assay [2] (presymptomatic female treatment group, vehicle 114.2 days) is recorded as 122.5 days. In addition, the “onset of disease (neurological score 3)” value in assay [3] is “no statistically significant difference”. Further, the values for the disease duration result in assay [4] (presymptomatically treated female mice) and in assay [4] (symptomatically treated groups) were “prolonged time” and “did not show any significant alterations”, respectively. Besides, in assay [5], the “axonal number by axoplasmal diameter size range” value is listed as “no significant differences”. Also, in assay [5], the “total number of preserved axons in the sciatic nerve” value is given as “comparable axon numbers”. In addition, the “Iba1 immunopositive microglial cells” value in assay [6] (d100, Fasudil 30, vehicle SOD1G93A 27.8±4.7, wildtype 14.0±2.8) is 39.5±3.9 cells/0.5 mm^2; in assay [6] (disease end-stage, Fas30, vehicle 43.2±4.2) it was 48.8±3.3 cells/0.5 mm^2; in assay [6] (disease end-stage, Fas100, vehicle 43.2±4.2) it was 50.2±4.7 cells/0.5 mm^2. In assay [7], the “hanging wire performance (180 s)” value is “not different”.
